Results reported in patent US12486240B2, “Oxadiazole compounds for controlling or preventing phytopathogenic fungi” (PI INDUSTRIES LTD., priority 2019, dated 2025).

tested on: Phakopsora pachyrhizi; assay: Phakopsora pachyrhizi test on soybean (preventive spray); format: in vivo; details: preventive spray on soybean plants, inoculated one day after treatment, rated 3, 7, 10 and 15 days after application, read-out: Efficacy (% control) from disease severity rating versus untreated control
Method: Example 5: Phakopsora pachyrhizi Test on Soybean Compounds were dissolved in 2% dimethyl sulfoxide/acetone and then mixed with water containing an emulsifier to a calibrated spray volume of 50 mL. This 50 mL spray solution was poured into spray bottles for further applications. To test the preventive activity of compounds, healthy young Soybean plants raised in the greenhouse were sprayed with the active compound preparation at the stated application rates inside the spray cabinets using hollow cone nozzles. One day after treatment, the plants were inoculated with a spore suspension containing 2×10^5 Phakopsora pachyrhizi conidia. The inoculated plants were then kept in a greenhouse chamber at 22-24° C. temperature and 80-90% relative humidity for disease expression. A visual assessment of the compound's performance was carried out by rating the disease severity (0-100% scale) on treated plants 3, 7, 10 and 15 days after application. Efficacy (% control) of the compounds was calculated by comparing the disease rating in the treatment with the one of the untreated control. The sprayed plants were also assessed for plant compatibility by recording symptoms like necrosis, chlorosis and stunting.

| SMILES | pest or weed control at 500 ppm |
| --- | --- |
| CN(Cc1ccccc1)c1c(Nc2ccc(-c3noc(C(F)(F)F)n3)cc2)c(=O)c1=O [Compound 1, 3-(benzyl(methyl)amino)-4-((4-(5-(trifluoromethyl)-1,2,4-oxadiazol-3-yl)phenyl)amino)cyclobut-3-ene-1,2-dione] | ≥ 70% |
| COc1c(Nc2ccc(-c3noc(C(F)(F)F)n3)cc2)c(=O)c1=O [Compound 2, 3-methoxy-4((4-(5-(trifluoromethyl)-1,2,4-oxadiazol-3-yl)phenyl)amino)cyclobut-3-ene-1,2-dione] | ≥ 70% |
| O=c1c(Nc2ccc(-c3noc(C(F)(F)F)n3)cc2)c(N2CCOCC2)c1=O [Compound 4, 3-morpholino-4((4-(5-(trifluoromethyl)-1,2,4-oxadiazol-3-yl)phenyl)amino)cyclobut-3-ene-1,2-dione] | ≥ 70% |
| COC1CCN(c2c(Nc3ccc(-c4noc(C(F)(F)F)n4)cc3)c(=O)c2=O)C1 (stereo not shown) [Compound 5, 3-(3-methoxypyrrolidin-1-yl)-4-((4-(5-(trifluoromethyl)-1,2,4-oxadiazol-3-yl)phenyl)amino)cyclobut-3-ene-1,2-dione] | ≥ 70% |
| CCOC1CN(c2c(Nc3ccc(-c4noc(C(F)(F)F)n4)cc3)c(=O)c2=O)C1 [Compound 6, 3-(3-ethoxyazetidin-1-yl)-4-((4-(5-(trifluoromethyl)-1,2,4-oxadiazol-3-yl)phenyl)amino)cyclobut-3-ene-1,2-dione] | ≥ 70% |
| O=c1c(Nc2ccc(-c3noc(C(F)(F)F)n3)cc2)c(N2CCC2)c1=O [Compound 9, 3-(azetidin-1-yl)-4-((4-(5-(trifluoromethyl)-1,2,4-oxadiazol-3-yl)phenyl)amino)cyclobut-3-ene-1,2-dione] | ≥ 70% |
| CN(Cc1cc(F)cc(F)c1)c1c(Nc2ccc(-c3noc(C(F)(F)F)n3)cc2)c(=O)c1=O [Compound 10, 3((3,5-difluorobenzyl)(methyl)amino)-4-((4-(5-(trifluoromethyl)-1,2,4-oxadiazol-3-yl)phenyl)amino)cyclobut-3-ene-1,2-dione] | ≥ 70% |
| CCCN(C)c1c(Nc2ccc(-c3noc(C(F)(F)F)n3)cc2)c(=O)c1=O [Compound 11, 3-(methyl(propyl)amino)-4-((4-(5-(trifluoromethyl)-1,2,4-oxadiazol-3-yl)phenyl)amino)cyclobut-3-ene-1,2-dione] | ≥ 70% |
| CN(C)c1c(Nc2ccc(-c3noc(C(F)(F)F)n3)cc2)c(=O)c1=O [Compound 12, 3-(dimethylamino)-4-((4-(5-(trifluoromethyl)-1,2,4-oxadiazol-3-yl)phenyl)amino)cyclobut-3-ene-1,2-dione] | ≥ 70% |
| O=C1CN(c2c(Nc3ccc(-c4noc(C(F)(F)F)n4)cc3)c(=O)c2=O)CCN1 [Compound 13, 3-(3-oxopiperazin-1-yl)-4-((4-(5-(trifluoromethyl)-1,2,4-oxadiazol-3-yl)phenyl)amino)cyclobut-3-ene-1,2-dione] | ≥ 70% |
| C=CCN(C)c1c(Nc2ccc(-c3noc(C(F)(F)F)n3)cc2)c(=O)c1=O [Compound 14, 3-(allyl(methyl)amino)-4-((4-(5-(trifluoromethyl)-1,2,4-oxadiazol-3-yl)phenyl)amino)cyclobut-3-ene-1,2-dione] | ≥ 70% |
| N#CC1CCN(c2c(Nc3ccc(-c4noc(C(F)(F)F)n4)cc3)c(=O)c2=O)C1 (stereo not shown) [Compound 15, 1-(3,4-dioxo-2-((4-(5-(trifluoromethyl)-1,2,4-oxadiazol-3-yl)phenyl)amino)cyclobut-1-en-1-yl)pyrrolidine-3-carbonitrile] | ≥ 70% |
| CN1CCN(c2c(Nc3ccc(-c4noc(C(F)(F)F)n4)cc3)c(=O)c2=O)CC1 [Compound 16, 3-(4-methylpiperazin-1-yl)-4-((4-(5-(trifluoromethyl)-1,2,4-oxadiazol-3-yl)phenyl)amino)cyclobut-3-ene-1,2-dione] | ≥ 70% |
| O=c1c(NCc2ccc(-c3noc(C(F)(F)F)n3)cc2)c(N2CCOCC2)c1=O [Compound 17, 3-morpholino-4-((4-(5-(trifluoromethyl)-1,2,4-oxadiazol-3-yl)benzyl)amino)cyclobut-3-ene-1,2-dione] | ≥ 70% |
| COc1c(NCc2ccc(-c3noc(C(F)(F)F)n3)cc2)c(=O)c1=O [Compound 18, 3-methoxy-4-((4-(5-(trifluoromethyl)-1,2,4-oxadiazol-3-yl)benzyl)amino)cyclobut-3-ene-1,2-dione] | ≥ 70% |
| COCCNc1c(NCc2ccc(-c3noc(C(F)(F)F)n3)cc2)c(=O)c1=O [Compound 19, 3-((2-methoxyethyl)amino)-4-((4-(5-(trifluoromethyl)-1,2,4-oxadiazol-3-yl)benzyl)amino)cyclobut-3-ene-1,2-dione] | ≥ 70% |

| SMILES | pest or weed control at 500 ppm |
| --- | --- |
| C=CCNc1c(NCc2ccc(-c3noc(C(F)(F)F)n3)cc2)c(=O)c1=O [Compound 20, 3-(allylamino)-4-((4-(5-(trifluoromethyl)-1,2,4-oxadiazol-3-yl)benzyl)amino)cyclobut-3-ene-1,2-dione] | ≥ 70% |
| O=c1c(NCc2ccc(-c3noc(C(F)(F)F)n3)cc2)c(N2CCSCC2)c1=O [Compound 31, 3-thiomorpholino-4-((4-(5-(trifluoromethyl)-1,2,4-oxadiazol-3-yl)benzyl)amino)cyclobut-3-ene-1,2-dione] | ≥ 70% |
| O=c1c(NCc2ccc(-c3noc(C(F)(F)F)n3)cc2)c(N2CC(O)C2)c1=O [Compound 32, 3-(3-hydroxyazetidin-1-yl)-4-((4-(5-(trifluoromethyl)-1,2,4-oxadiazol-3-yl)benzyl)amino)cyclobut-3-ene-1,2-dione] | ≥ 70% |
| O=c1c(NCc2ccc(-c3noc(C(F)(F)F)n3)cc2)c(N2CCC(F)(F)C2)c1=O [Compound 33, 3-(3,3-difluoropyrrolidin-1-yl)-4-((4-(5-(trifluoromethyl)-1,2,4-oxadiazol-3-yl)benzyl)amino)cyclobut-3-ene-1,2-dione] | ≥ 70% |
| COc1c(N(C)Cc2ccc(-c3noc(C(F)(F)F)n3)cc2)c(=O)c1=O [Compound 41, 3-methoxy-4-(methyl(4-(5-(trifluoromethyl)-1,2,4-oxadiazol-3-yl)benzyl)amino)cyclobut-3-ene-1,2-dione] | ≥ 70% |
| CN(Cc1ccc(-c2noc(C(F)(F)F)n2)cc1)c1c(N2CCOCC2)c(=O)c1=O [Compound 42, 3-(methyl(4-(5-(trifluoromethyl)-1,2,4-oxadiazol-3-yl)benzyl)amino)-4-morpholinocyclobut-3-ene-1,2-dione] | ≥ 70% |
| CN(Cc1ccc(-c2noc(C(F)(F)F)n2)cc1)c1c(N2CCCC2)c(=O)c1=O [Compound 44, 3-(methyl(4-(5-(trifluoromethyl)-1,2,4-oxadiazol-3-yl)benzyl)amino)-4-(pyrrolidin-1-yl)cyclobut-3-ene-1,2-dione] | ≥ 70% |
| COC1CN(c2c(N(C)Cc3ccc(-c4noc(C(F)(F)F)n4)cc3)c(=O)c2=O)C1 [Compound 45, 3-(3-methoxyazetidin-1-yl)-4-(methyl(4-(5-(trifluoromethyl)-1,2,4-oxadiazol-3-yl)benzyl)amino)cyclobut-3-ene-1,2-dione] | ≥ 70% |
| CN(Cc1ccc(-c2noc(C(F)(F)F)n2)cc1)c1c(N2CC(C#N)C2)c(=O)c1=O [Compound 46, 1-(2-(methyl(4-(5-(trifluoromethyl)-1,2,4-oxadiazol-3-yl)benzyl)amino)-3,4-dioxocyclobut-1-en-1-yl)azetidine-3-carbonitrile] | ≥ 70% |
| CN(Cc1ccc(-c2noc(C(F)(F)F)n2)cc1)c1c(N2CCC2)c(=O)c1=O [Compound 47, 3-(azetidin-1-yl)-4-(methyl(4-(5-(trifluoromethyl)-1,2,4-oxadiazol-3-yl)benzyl)amino)cyclobut-3-ene-1,2-dione] | ≥ 70% |
| CC(C)OC1CN(c2c(N(C)Cc3ccc(-c4noc(C(F)(F)F)n4)cc3)c(=O)c2=O)C1 [Compound 48, 3-(3-isopropoxyazetidin-1-yl)-4-(methyl(4-(5-(trifluoromethyl)-1,2,4-oxadiazol-3-yl)benzyl)amino)cyclobut-3-ene-1,2-dione] | ≥ 70% |
| CN(Cc1ccc(-c2noc(C(F)(F)F)n2)cc1)c1c(N2CC3(COC3)C2)c(=O)c1=O [Compound 49, 3-(methyl(4-(5-(trifluoromethyl)-1,2,4-oxadiazol-3-yl)benzyl)amino)-4-(2-oxa-6-azaspiro[3.3]heptan-6-yl)cyclobut-3-ene-1,2-dione] | ≥ 70% |
| CN(Cc1ccc(-c2noc(C(F)(F)F)n2)cc1)c1c(N2CCC(F)(F)C2)c(=O)c1=O [Compound 50, 3-(3,3-difluoropyrrolidin-1-yl)-4-(methyl(4-(5-(trifluoromethyl)-1,2,4-oxadiazol-3-yl)benzyl)amino)cyclobut-3-ene-1,2-dione] | ≥ 70% |
| CC(C)Nc1c(N(C)Cc2ccc(-c3noc(C(F)(F)F)n3)cc2)c(=O)c1=O [Compound 51, 3-(isopropylamino)-4-(methyl(4-(5-(trifluoromethyl)-1,2,4-oxadiazol-3-yl)benzyl)amino)cyclobut-3-ene-1,2-dione] | ≥ 70% |
| CN1CCN(c2c(N(C)Cc3ccc(-c4noc(C(F)(F)F)n4)cc3)c(=O)c2=O)CC1 [Compound 52, 3-(methyl(4-(5-(trifluoromethyl)-1,2,4-oxadiazol-3-yl)benzyl)amino)-4-(4-methylpiperazin-1-yl)cyclobut-3-ene-1,2-dione] | ≥ 70% |
